Source: publication PMC10223356, “Tetrasubstituted Pyrrole Derivative Mimetics of Protein–Protein Interaction Hot-Spot Residues: A Promising Class of Anticancer Agents Targeting Melanoma Cells” (Molecules, 2023)
Converted amounts (≈) assume the structure as drawn.

Key:
normal rat L6 myoblast = experiment: Cell survival index (MTT + cell count) bioscreen, L6; assay type: cell-based; conditions: healthy rat myoblast cell line, 48 h of incubation, mean ± SEM (n = 30), read-out: L6 IC50
Method: (§1) Cell growth inhibition activity of compounds 1, 9a–i, 10a,b, and the positive control nutlin-3a was evaluated following 48 h of incubation with increasing concentrations of the compounds (from 1.5 to 25 µM) in human cancer (A375 and HCT-116) and healthy (L6) cell lines. […] The evaluation of the “cell survival index” show a typical concentration-dependent sigmoid trend, achieving IC50 values in the low micromolar range (Figure S2).
(§2) Human epithelial melanoma A375 cells, human colorectal carcinoma HCT-116 cells, and normal rat L6 myoblast were grown in DMEM (Invitrogen, Paisley, UK) supplemented with 10% fetal bovine serum (FBS, Cambrex, Verviers, Belgium), L-glutamine (2 mM, Sigma, Milan, Italy), penicillin (100 units/mL, Sigma), and streptomycin (100 μg/mL, Sigma) and cultured in a humidified 5% carbon dioxide atmosphere at 37 °C, according to ATCC recommendations. A375 and HCT-116 were used as preclinical human cancer models in vitro, while rat L6 were used as control healthy cells.
(§3) The antiproliferative activity of 1, 9a–i, and 10a,b was investigated through the estimation of a “cell survival index”, arising from the combination of cell viability evaluation with cell counting, as previously reported. The cell survival index is calculated as the arithmetic mean between the percentage values derived from the MTT assay and the automated cell count. Cells were inoculated in 96-microwell culture plates at a density of 10^4 cells/well and allowed to grow for 24 h. The medium was then replaced with fresh medium and cells were treated for an additional 48 h with a range of concentrations (from 1.5 to 25 μM) of 1, 9a–i, and 10a,b. Using the same experimental procedure, cell cultures were also incubated with DMSO as negative controls (vehicle), as well as with cisplatin (cDDP) and nutlin-3a as positive controls for cytotoxic and antiproliferative effects, respectively. Cell viability was evaluated using the MTT assay procedure. Cell number was determined by TC20 automated cell counter (Bio-Rad, Milan, Italy), providing an accurate and reproducible total count of cells and a live/dead ratio in one step by a specific dye (trypan blue) exclusion assay. The calculation of the concentration required to inhibit the net increase in the cell number and viability by 50% (IC50) is based on plots of data (n = 6 for each experiment) and repeated five times (total n = 30). IC50 values were calculated from a dose–response curve by nonlinear regression using a curve-fitting program, GraphPad Prism 5.0, and are expressed as mean values ± SEM (n = 30) of five independent experiments.

[1] = tested on: human colorectal carcinoma HCT-116 cells; experiment: Cell survival index (MTT + cell count) bioscreen, HCT-116; assay type: cell-based; conditions: HCT-116, 48 h, human colon cancer cell line, 48 h of incubation, mean ± SEM (n = 30)
Method: as §1, §2, §3

[2] = Solubility assay in PBS by UV light scattering (precipitation point); assay type: physicochemical; conditions: for solubility at 1 min: PBS (phosphate-buffered saline), aqueous buffer, kinetic from dmso stock, PBS solution pH = 7.4, 37 °C, mean ± SEM (n = 3)
Method: The solubility of all compounds was evaluated in a PBS solution (phosphate-buffered saline; Sigma-Aldrich, Merck KGaA, Darmstadt, Germany, pH = 7.4) by means of UV spectroscopy.
For each compound, the precipitation point was quantified measuring the increasing of the UV absorption of PBS in the range of 600–800 nm after successive additions of aliquots of a DMSO solution at specific concentration. Because of the absence of bands in the selected UV region, the increase in absorption is due to light scattering caused by the formation of particulate in the PBS. UV absorption data were graphically reported vs. μL of the added DMSO solution (x-axis), and the precipitation point was identified as the intersect point of the bilinear fitted curve. The x coordinate of the intersect point corresponded to the microlitres of DMSO added to PBS (1.4 mL) when the precipitation occurred, from which the concentration of the molecule in PBS at the precipitation point is readily calculated.
The solubility of each molecule in PBS was quantified measuring the UV scattering in the range of 600–800 nm (JASCO UV-530 spectrophotometer, equipped with ETC-505 T temperature controller). DMSO solutions of 1, 9a, 9b, 9c, 9d, 9e, 9f, ±10b, and nutlin-3a were used at a final concentration of 2.6 mM, whereas those of 9g, 9h, and 9i were used at 1.0 mM. A total of 1400 µL of degassed PBS was placed in a quartz cuvette (o.l. 0.5 cm), equilibrated 5 min at 37 °C, and then titrated by 7–10 successive additions of 0.5 µL or 0.3 µL from the DMSO solution. Each titration was performed without removing the cuvette from the UV cell and, after each addition, the solution was equilibrated 1 min a 37 °C under gently stirring before the acquisition of the UV data. For each molecule, the solubility was expressed as the mean ± SEM (n = 3).

[3] = tested on: human epithelial melanoma A375 cells; experiment: Cell survival index (MTT + cell count) bioscreen, A375; assay type: cell-based; conditions: for IC50: A-375, human melanoma cell line, 48 h of incubation, cell survival index, mean ± SEM (n = 30); for SI (selectivity index): SI = IC50 L6/IC50 A375
Method: as §1, §2, §3

[4] = tested on: human A375 melanoma cells; experiment: Apoptosis/Necrosis detection by fluorescence microscopy; assay type: cell-based; conditions: A375 cells incubated with IC50 concentrations
Source text: In order to confirm the possible activation of apoptosis, we performed fluorescence experiments to simultaneously monitor apoptotic and/or necrotic cells as well as deepen the biological effects on A375 triggered by exposure to the most bioactive derivatives under investigation (Figure 5).
Indeed, in apoptosis, PS is transferred to the outer leaflet of the plasma membrane. As a general indicator of the initial/intermediate stages of programmed cell death, the PS appearance on the cell surface can be detected as an apoptotic hallmark. Even in this circumstance, the results are very similar to those obtained with nutlin-3a.
The evaluation of apoptosis and/or necrosis induction after treatments in vitro was investigated by using the Apoptosis/Necrosis Detection kit (ab176749, Abcam, Discovery Drive, Cambridge Biomedical Campus, Cambridge, UK), which is optimized to simultaneously detect cell apoptosis (green), necrosis (red), and healthy cells (blue) by fluorescence microscopy analysis. […] As a universal indicator of the initial/intermediates stages of cell apoptosis, the appearance of PS on the cell surface can be detected before cytomorphological changes are observed. Thus, the phosphatidylserine (PS) early apoptotic sensor has green fluorescence (Ex/Em = 490/525 nm) upon binding to membrane PS. […]

[5] = DMSO solution 2.6 mM added to 1400 µL PBS
[6] = DMSO solution 1.0 mM added to 1400 µL PBS, Abs 640 nm

| Volume of DMSO solution added to PBS at the precipitation point [2, 5] | solubility at 1 min [2] | Volume of DMSO solution added to PBS at the precipitation point [2, 6] | Solubility fold higher than that of 1 ([2]; PBS pH 7.4, ratio of DMSO solution volumes at the precipitation points) | SMILES | CC50 (normal rat L6 myoblast) | IC50 [1] | IC50 [3] | SI (selectivity index) [3] | Activation of apoptosis (phosphatidylserine sensor, green fluorescence) [4] |
| --- | --- | --- | --- | --- | --- | --- | --- | --- | --- |
| 3,6 µL | 6.7 ± 0.6 µM (≈ 3.08 µg/mL) | – | – | Cc1ccc(Cn2c(C(=O)NCc3cccc(Cl)c3)cc(C(O)c3ccccc3)c2C)cc1 (racemic) [(±)10b, (±)N-(3-chlorobenzyl)-4-(hydroxy(phenyl)methyl)-5-methyl-1-(4-methylbenzyl)-1H-pyrrole-2-carboxamide] | 54 ± 6 µM | 25 ± 5 µM | 15 ± 5 µM | 3.6 | – |
| 2,14 µL | 3.9 ± 0.1 µM (≈ 1.86 µg/mL) | – | – | Cc1c(C(=O)c2ccccc2)cc(C(=O)NCc2cccc(Cl)c2)n1Cc1ccc(Cl)cc1 [compound 9a, 4-Benzoyl-N-(3-chlorobenzyl)-1-(4-chlorobenzyl)-5-methyl-1H-pyrrole-2-carboxamide] | 48 ± 5 µM | 36.4 ± 8 µM | 18 ± 4 µM | 2.7 | – |
| 1,7 µL | 3.1 ± 0.2 µM (≈ 1.47 µg/mL) | – | – | COc1ccc(Cn2c(C(=O)NCc3cccc(Cl)c3)cc(C(=O)c3ccccc3)c2C)cc1 [compound 9b, 4-Benzoyl-N-(3-chlorobenzyl)-1-(4-methoxybenzyl)-5-methyl-1H-pyrrole-2-carboxamide] | 40 ± 5 µM | 46 ± 18 µM | 24 ± 14 µM | 1.7 | – |
| 2,1 µL | 3.9 ± 0.2 µM (≈ 1.8 µg/mL) | – | – | Cc1c(C(=O)c2ccccc2)cc(C(=O)NCc2cccc(Cl)c2)n1Cc1ccc(F)cc1 [compound 9c, 4-Benzoyl-N-(3-chlorobenzyl)-1-(4-fluorobenzyl)-5-methyl-1H-pyrrole-2-carboxamide] | 35 ± 4 µM | 55.9 ± 7 µM | 13 ± 4 µM | 2.7 | consistent activation of apoptosis |
| 1,67 µL | 3.1 ± 0.2 µM (≈ 1.42 µg/mL) | – | – | Cc1ccc(Cn2c(C(=O)NCc3ccc(Cl)cc3)cc(C(=O)c3ccccc3)c2C)cc1 [compound 9d, 4-Benzoyl-N-(4-chlorobenzyl)-5-methyl-1-(4-methylbenzyl)-1H-pyrrole-2-carboxamide] | 25 ± 6 µM | 35.4 ± 6 µM | 15 ± 5 µM | 1.7 | – |
| 1,93 µL | 3.5 ± 0.3 µM (≈ 1.67 µg/mL) | – | – | Cc1c(C(=O)c2ccccc2)cc(C(=O)NCc2ccc(Cl)cc2)n1Cc1ccc(Cl)cc1 [compound 9e, 4-Benzoyl-N,1-bis(4-chlorobenzyl)-5-methyl-1H-pyrrole-2-carboxamide] | 38 ± 2 µM | 34.6 ± 6 µM | 23 ± 6 µM | 1.6 | – |
| 1,41 µL | 2.6 ± 0.1 µM (≈ 1.24 µg/mL) | – | – | Cc1c(C(=O)c2ccccc2)cc(C(=O)NCc2cccc(C(F)(F)F)c2)n1Cc1ccccc1 [compound 9f, 4-Benzoyl-1-benzyl-5-methyl-N-(3-(trifluoromethyl)-benzyl)-1H-pyrrole-2-carboxamide] | 35 ± 7 µM | 28.4 ± 7 µM | 27 ± 8 µM | 1.3 | – |
| – | 1.5 ± 0.2 µM (≈ 0.752 µg/mL) | 2,1 µL | – | CC(=O)c1cc(C(=O)NCc2cccc(Br)c2)n(Cc2ccc(C)cc2)c1-c1ccccc1 [compound 9g, 4-acetyl-N-(3-bromobenzyl)-1-(4-methylbenzyl)-5-phenyl-1H-pyrrole-2-carboxamide] | 71 ± 5 µM | 34 ± 6 µM | 18 ± 5 µM | 3.9 | – |
| – | < 1 µM | 0.84 µL | – | Cc1ccc(Cn2c(C(=O)NCc3cccc(Cl)c3)cc(C(=O)c3ccc(C)cc3)c2C)cc1 [compound 9h, N-(3-chlorobenzyl)-5-methyl-4-(4-methylbenzoyl)-1-(4-methylbenzyl)-1H-pyrrole-2-carboxamide] | 42 ± 7 µM | 56.3 ± 15 µM | 24 ± 6 µM | 1.7 | – |
| – | < 1 µM | 1,0 µL | – | COc1ccc(C(=O)c2cc(C(=O)NCc3cccc(Cl)c3)n(Cc3ccc(C)cc3)c2C)cc1 [compound 9i, N-(3-chlorobenzyl)-4-(4-methoxybenzoyl)-5-methyl-1-(4-methylbenzyl)-1H-pyrrole-2-carboxamide] | 66 ± 5 µM | > 100 µM | 16 ± 6 µM | 4.2 | – |
| – | 10.5 ± 0.1 µM (≈ 4.81 µg/mL) | – | 2.8 fold | Cc1c(C(=O)c2ccccc2)cc(C(=O)NCc2cccc(Cl)c2)n1Cc1ccc(N)cc1 [compound 10a, 1-(4-aminobenzyl)-4-benzoyl-N-(3-chlorobenzyl)-5-methyl-1H-pyrrole-2-carboxamide] | 55 ± 7 µM | 41.3 ± 6 µM | 10 ± 4 µM | 5.6 | consistent activation of apoptosis |
| – | 2.4 ± 0.2 µM (≈ 1.4 µg/mL) | – | – | COc1ccc(C2=N[C@H](c3ccc(Cl)cc3)[C@H](c3ccc(Cl)cc3)N2C(=O)N2CCNC(=O)C2)c(OC(C)C)c1 [nutlin-3a, reference compound] | 18 ± 4 µM | 12.5 ± 5 µM | 15 ± 3 µM | 1.2 | – |
